Key:
[1] = test system: MCF7; experiment: Antiproliferative activity against human MCF7 cells assessed as inhibition of cell growth incubated for 72 hrs by MTT assay; type: functional, cell-based; settings: MCF7, 72 h
[2] = test system: MDA-MB-231; experiment: Antiproliferative activity against human MDA-MB-231 cells assessed as inhibition of cell growth incubated for 72 hrs by MTT assay; type: functional, cell-based; settings: MDA-MB-231, 72 h
[3] = Cytotoxicity against human MCF-10A cells incubated for 72 hrs by MTT assay; type: toxicity, cell-based
[4] = test system: T47D; experiment: Antiproliferative activity against human T47D cells assessed as inhibition of cell growth incubated fro 72 hrs by MTT assay; type: functional, cell-based
[5] = test system: MDA-MB-468; experiment: Antiproliferative activity against human MDA-MB-468 cells assessed as inhibition of cell growth incubated for 72 hrs by MTT assay; type: functional, cell-based; settings: MDA-MB-468, 72 h

Compound	IC50 [1] [µM]	IC50 [2] [µM]	IC50 [4] [µM]	IC50 [5] [µM]	IC50 at 72 h [3] [µM]
O=C(N[C@@H](Cc1ccccc1)C(=O)Nc1ccc([N+](=O)[O-])cc1Cl)c1cc(Cl)ccc1OC1CCNCC1	4.48	3.24	–	–	–
NCCOc1ccc(Cl)cc1C(=O)NCC(=O)Nc1ccc2c(c1)S(=O)(=O)C=C2	9.44	6.37	–	–	–
CC(C)(C)OC(=O)N1CCC(Oc2ccc(Cl)cc2C(=O)N[C@@H](Cc2ccccc2)C(=O)Nc2ccc([N+](=O)[O-])cc2Cl)CC1	> 10	> 10	–	–	–
C=C(NC(=O)c1cc(Cl)ccc1OCCNC(=O)OC(C)(C)C)C(=O)Nc1ccc([N+](=O)[O-])cc1Cl	4.48	5.34	–	–	–
O=C(Nc1ccc([N+](=O)[O-])cc1Cl)c1cc(Cl)ccc1O [NICLOSAMIDE]	8.13	1.78	–	–	–
NCCOc1ccc(Cl)cc1C(=O)N[C@@H](Cc1ccccc1)C(=O)Nc1ccc([N+](=O)[O-])cc1Cl	6.58	7.97	–	–	–
CC(C)(C)OC(=O)NCCOc1ccc(Cl)cc1C(=O)N[C@@H](CO)C(=O)Nc1ccc([N+](=O)[O-])cc1Cl	> 10	> 10	–	–	–
CC(C)(C)OC(=O)NCCOc1ccc(Cl)cc1C(=O)N[C@@H](Cc1ccccc1)C(=O)Nc1ccc2c(c1)S(=O)(=O)C=C2	1.53	1.17	1.46	–	1.73
CC(C)[C@H](NC(=O)c1cc(Cl)ccc1OC1CCN(C(=O)OC(C)(C)C)CC1)C(=O)Nc1ccc([N+](=O)[O-])cc1Cl	> 10	> 10	–	–	–
CC(C)C[C@H](NC(=O)c1cc(Cl)ccc1OCCNC(=O)OC(C)(C)C)C(=O)Nc1ccc([N+](=O)[O-])cc1Cl	> 10	> 10	–	–	–
NCCOc1ccc(Cl)cc1C(=O)N[C@@H](Cc1ccccc1)C(=O)Nc1ccc2c(c1)S(=O)(=O)C=C2	1.62	1.4	1.58	3.53	2.03
CC(C)[C@H](NC(=O)c1cc(Cl)ccc1OCCNC(=O)OCc1ccccc1)C(=O)Nc1ccc([N+](=O)[O-])cc1Cl	> 10	> 10	–	–	–
CC(C)(C)OCC(NC(=O)c1cc(Cl)ccc1OCCNC(=O)OC(C)(C)C)C(=O)Nc1ccc([N+](=O)[O-])cc1Cl (single isomer, unassigned)	> 10	> 10	–	–	–
CSCC[C@H](NC(=O)c1cc(Cl)ccc1OCCN)C(=O)Nc1ccc([N+](=O)[O-])cc1Cl	> 10	> 10	–	–	–
CC(C)[C@H](NC(=O)c1cc(Cl)ccc1OCCCNC(=O)OC(C)(C)C)C(=O)Nc1ccc([N+](=O)[O-])cc1Cl	> 10	> 10	–	–	–
CSCC[C@H](NC(=O)c1cc(Cl)ccc1OCCNC(=O)OC(C)(C)C)C(=O)Nc1ccc([N+](=O)[O-])cc1Cl	> 10	> 10	–	–	–
CC(C)[C@H](NC(=O)c1cc(Cl)ccc1OCCCCNC(=O)OC(C)(C)C)C(=O)Nc1ccc([N+](=O)[O-])cc1Cl	> 10	> 10	–	–	–
NCCOc1ccc(Cl)cc1C(=O)Nc1ccc([N+](=O)[O-])cc1Cl	4.14	3.48	1.88	5.05	–
CC(C)COC(=O)NCCOc1ccc(Cl)cc1C(=O)N[C@H](C(=O)Nc1ccc([N+](=O)[O-])cc1Cl)C(C)C	10.1	4.9	–	–	–
CC[C@@H](C)[C@H](NC(=O)c1cc(Cl)ccc1OCCNC(=O)OC(C)(C)C)C(=O)Nc1ccc([N+](=O)[O-])cc1Cl	10.5	4.02	–	–	–
CC(C)(C)OC(=O)NCCOc1ccc(Cl)cc1C(=O)N[C@@H](Cc1ccc(O)cc1)C(=O)Nc1ccc([N+](=O)[O-])cc1Cl	8.81	> 10	–	–	–
CC(C)(C)OC(=O)CC[C@H](NC(=O)c1cc(Cl)ccc1OCCNC(=O)OC(C)(C)C)C(=O)Nc1ccc([N+](=O)[O-])cc1Cl	> 10	> 10	–	–	–
CC(C)[C@H](NC(=O)c1cc(Cl)ccc1OC1CCNCC1)C(=O)Nc1ccc([N+](=O)[O-])cc1Cl	> 10	5.23	–	–	–
C[C@H](NC(=O)c1cc(Cl)ccc1OCCNC(=O)OC(C)(C)C)C(=O)Nc1ccc([N+](=O)[O-])cc1Cl	> 10	> 10	–	–	–
CC(C)(C)OC(=O)CC[C@H](NC(=O)c1cc(Cl)ccc1OCCN)C(=O)Nc1ccc([N+](=O)[O-])cc1Cl	3.08	5.99	–	–	–
NCCOc1ccc(Cl)cc1C(=O)N[C@H](Cc1ccccc1)C(=O)Nc1ccc([N+](=O)[O-])cc1Cl	4.89	5.02	–	–	–
CC(C)(C)OC(=O)NCCOc1ccc(Cl)cc1C(=O)NCC(=O)Nc1ccc2c(c1)S(=O)(=O)C=C2	1.43	2.08	–	–	–
CC(C)(C)OCC(NC(=O)c1cc(Cl)ccc1OCCN)C(=O)Nc1ccc([N+](=O)[O-])cc1Cl (single isomer, unassigned)	1.62	3.22	–	–	–
CC(C)(C)OC(=O)NCCOc1ccc(Cl)cc1C(=O)N[C@@H](Cc1ccccc1)C(=O)Nc1ccc([N+](=O)[O-])cc1Cl	> 10	> 10	–	–	–

Further lines, with some results ahead:

IC50 [1] [µM]	IC50 [2] [µM]	IC50 [4] [µM]	IC50 [5] [µM]	Compound	IC50 at 72 h [3] [µM]
> 10	> 10	–	–	CC(C)[C@H](NC(=O)c1cc(Cl)ccc1OCCN)C(=O)Nc1ccc(F)c(F)c1	–
> 10	> 10	–	–	CC(C)[C@H](NC(=O)c1cc(Cl)ccc1OCCNC(=O)OC(C)(C)C)C(=O)Nc1ccc(C(F)(F)F)cc1Cl	–
> 10	> 10	–	–	CC(C)[C@H](NC(=O)c1cc(Cl)ccc1OCCN)C(=O)Nc1ccc([N+](=O)[O-])cc1Cl	–
6.01	5.43	–	–	CC(C)[C@H](NC(=O)c1cc(Cl)ccc1OCCN)C(=O)Nc1cc(C(F)(F)F)cc(C(F)(F)F)c1	–
> 10	> 10	–	–	CC(C)(C)OC(=O)N1CCC(Oc2ccc(Cl)cc2C(=O)N[C@@H](Cc2ccccc2)C(=O)Nc2cc(C(F)(F)F)cc(C(F)(F)F)c2)CC1	–
2.95	4.92	–	–	NCCOc1ccc(Cl)cc1C(=O)N[C@@H](Cc1ccccc1)C(=O)Nc1cc(C(F)(F)F)cc(C(F)(F)F)c1	–
> 10	6.18	–	–	CC[C@@H](C)[C@H](NC(=O)c1cc(Cl)ccc1OCCN)C(=O)Nc1ccc([N+](=O)[O-])cc1Cl	–
> 10	> 10	–	–	CC(C)(C)OC(=O)NCCOc1ccc(Cl)cc1C(=O)N[C@@H](Cc1ccccc1)C(=O)Nc1cc(C(F)(F)F)cc(C(F)(F)F)c1	–
> 10	> 10	–	–	CC(C)C[C@H](NC(=O)c1cc(Cl)ccc1OCCN)C(=O)Nc1ccc([N+](=O)[O-])cc1Cl	–
> 10	6.77	–	–	CC(C)[C@H](NC(=O)c1cc(Cl)ccc1OCCCN)C(=O)Nc1ccc([N+](=O)[O-])cc1Cl	–
> 10	5.44	–	–	CC(C)[C@H](NC(=O)c1cc(Cl)ccc1OCCN)C(=O)Nc1ccc(C(F)(F)F)cc1Cl	–
4.35	5.95	–	–	CC(C)[C@H](NC(=O)c1cc(Cl)ccc1OCCN)C(=O)Nc1ccc2c(c1)S(=O)(=O)C=C2	–
> 10	> 10	–	–	CC(C)[C@H](NC(=O)c1cc(Cl)ccc1OCCNC(=O)OC(C)(C)C)C(=O)Nc1cc(C(F)(F)F)cc(C(F)(F)F)c1	–
> 10	4.34	–	–	CC(C)[C@H](NC(=O)c1cc(Cl)ccc1OCCN)C(=O)Nc1cc(F)cc(C(F)(F)F)c1	–
> 10	3.72	–	–	CC(C)[C@H](NC(=O)c1cc(Cl)ccc1OCCNC(=O)OC(C)(C)C)C(=O)Nc1ccc(F)c(F)c1	–
2.63	2.32	3.19	2.63	O=C(N[C@@H](Cc1ccccc1)C(=O)Nc1cc(C(F)(F)F)cc(C(F)(F)F)c1)c1cc(Cl)ccc1OC1CCNCC1	5.9
> 10	> 10	–	–	COC(=O)NCCOc1ccc(Cl)cc1C(=O)N[C@H](C(=O)Nc1ccc([N+](=O)[O-])cc1Cl)C(C)C	–
1.52	1.53	1.59	2.38	CC(C)[C@H](NC(=O)c1cc(Cl)ccc1OCCNC(=O)OC(C)(C)C)C(=O)Nc1ccc2c(c1)S(=O)(=O)C=C2	2.6
> 10	> 10	–	–	CC(=O)NCCOc1ccc(Cl)cc1C(=O)N[C@H](C(=O)Nc1ccc([N+](=O)[O-])cc1Cl)C(C)C	–
11.5	7.87	–	–	CC(C)[C@H](NC(=O)c1cc(Cl)ccc1OCCNC(=O)OC(C)(C)C)C(=O)Nc1cc(F)cc(C(F)(F)F)c1	–
> 10	> 10	–	–	C[C@H](NC(=O)c1cc(Cl)ccc1OCCN)C(=O)Nc1ccc([N+](=O)[O-])cc1Cl	–
> 10	5.59	–	–	CC(C)[C@H](NC(=O)c1cc(Cl)ccc1OCCCCN)C(=O)Nc1ccc([N+](=O)[O-])cc1Cl	–

Reference: ChEMBL document CHEMBL5154817, “Structure-activity relationship studies on O-alkylamino-tethered salicylamide derivatives with various amino acid linkers as potent anticancer agents” (Eur J Med Chem, 2022)
